Reference: PMC10033419, “Blocking NS3–NS4B interaction inhibits dengue virus in non-human primates” (Nature, 2023)
Where “and” joins values, the source holds several entries; their conditions need not be identical. Equal values may be shown once. Read-outs that look alike come from different tables or passages of the source.

Assays:
DENV-2 RL strain [1] = assay: Antiviral assay, viral RNA RT-qPCR, C6/36 cells; format: cell-based
INF-B Singapore = assay: microbe, parasite or virus in culture; format: cell-based; details: Influenza B virus, MDCK
DENV-2 RL strain [2] = assay: Survival study, lethal DENV challenge with 4G2 antibody; format: in vivo, AG129 mice

COc1cc(N[C@H](C(=O)c2c[nH]c3ccc(OC(F)(F)F)cc23)c2ccc(Cl)cc2OC)cc(S(C)(=O)=O)c1 [JNJ-1802]
1.05 nM: EC50 (DENV-2 RL strain [1]; Dengue virus, DENV2, C6/36, C3/36 cells, DENV-2RL, EXP 1 and EXP 2, read-out: EC50, individual values)
> 25000 nM: EC50 (INF-B Singapore; read-out: EC50, Mean) | EC90 (INF-B Singapore; read-out: EC90, Mean)
1.24 ± 0.14 nM: EC50 (DENV-2 RL strain [1]; Dengue virus, DENV2, C6/36, C6/36, read-out: EC50)
1.2 nM: EC50 (DENV-2 RL strain [1]; Dengue virus, DENV2, C6/36, C3/36 cells, DENV-2RL, mean, read-out: EC50 Mean)
> 2600 nM: EC50 (INF-B Singapore)
100%: % Survival (DENV-2 RL strain [2]; 802R_0.3, BID, d p.i. 0) | % Survival (DENV-2 RL strain [2]; 802R_0.3, BID, d p.i. 1) | % Survival (DENV-2 RL strain [2]; 802R_0.3, BID, d p.i. 4) | % Survival (DENV-2 RL strain [2]; 802R_0.3, BID, d p.i. 5) | % Survival (DENV-2 RL strain [2]; 802R_0.3, BID, d p.i. 6) | % Survival (DENV-2 RL strain [2]; 802R_0.3, BID, d p.i. 7) | % Survival (DENV-2 RL strain [2]; 802R_0.3, BID, d p.i. 8) | % Survival (DENV-2 RL strain [2]; 802R_0.3, BID, d p.i. 9) | % Survival (DENV-2 RL strain [2]; 802R_0.3, BID, d p.i. 10) | % Survival (DENV-2 RL strain [2]; 802R_0.3, BID, d p.i. 11) | % Survival (DENV-2 RL strain [2]; 802R_0.3, BID, d p.i. 12) | % Survival (DENV-2 RL strain [2]; 802R_0.3, BID, d p.i. 13) | % Survival (DENV-2 RL strain [2]; 802R_0.3, BID, d p.i. 14) | % Survival (DENV-2 RL strain [2]; 802R_0.3, BID, d p.i. 15) | % Survival (DENV-2 RL strain [2]; 802R_0.3, BID, d p.i. 16) | % Survival (DENV-2 RL strain [2]; 802R_1, BID, d p.i. 0) | % Survival (DENV-2 RL strain [2]; 802R_1, BID, d p.i. 1) | % Survival (DENV-2 RL strain [2]; 802R_1, BID, d p.i. 2) | % Survival (DENV-2 RL strain [2]; 802R_1, BID, d p.i. 4) | % Survival (DENV-2 RL strain [2]; 802R_1, BID, d p.i. 5) | % Survival (DENV-2 RL strain [2]; 802R_1, BID, d p.i. 6) | % Survival (DENV-2 RL strain [2]; 802R_1, BID, d p.i. 7) | % Survival (DENV-2 RL strain [2]; 802R_1, BID, d p.i. 8) | % Survival (DENV-2 RL strain [2]; 802R_1, BID, d p.i. 9) | % Survival (DENV-2 RL strain [2]; 802R_1, BID, d p.i. 10) | % Survival (DENV-2 RL strain [2]; 802R_1, BID, d p.i. 11) | % Survival (DENV-2 RL strain [2]; 802R_1, BID, d p.i. 12) | % Survival (DENV-2 RL strain [2]; 802R_1, BID, d p.i. 13) | % Survival (DENV-2 RL strain [2]; 802R_1, BID, d p.i. 14) | % Survival (DENV-2 RL strain [2]; 802R_1, BID, d p.i. 15) | % Survival (DENV-2 RL strain [2]; 802R_1, BID, d p.i. 16) | % Survival (DENV-2 RL strain [2]; 802R_1, BID, d p.i. 17) | % Survival (DENV-2 RL strain [2]; 802R_1, BID, d p.i. 18) | % Survival (DENV-2 RL strain [2]; 802R_1, BID, d p.i. 19) | % Survival (DENV-2 RL strain [2]; 802R_1, BID, d p.i. 20) | % Survival (DENV-2 RL strain [2]; 802R_1, BID, d p.i. 21) | % Survival (DENV-2 RL strain [2]; 802R_1, BID, d p.i. 22) | % Survival (DENV-2 RL strain [2]; 802R_1, BID, d p.i. 23) | % Survival (DENV-2 RL strain [2]; 802R_1, BID, d p.i. 24) | % Survival (DENV-2 RL strain [2]; 802R_1, BID, d p.i. 25 = end of study) | % Survival (DENV-2 RL strain [2]; 802R_3, BID, d p.i. 0) | % Survival (DENV-2 RL strain [2]; 802R_3, BID, d p.i. 1) | % Survival (DENV-2 RL strain [2]; 802R_3, BID, d p.i. 2) | % Survival (DENV-2 RL strain [2]; 802R_3, BID, d p.i. 4) | % Survival (DENV-2 RL strain [2]; 802R_3, BID, d p.i. 5) | % Survival (DENV-2 RL strain [2]; 802R_3, BID, d p.i. 6) | % Survival (DENV-2 RL strain [2]; 802R_3, BID, d p.i. 7) | % Survival (DENV-2 RL strain [2]; 802R_3, BID, d p.i. 8) | % Survival (DENV-2 RL strain [2]; 802R_3, BID, d p.i. 9) | % Survival (DENV-2 RL strain [2]; 802R_3, BID, d p.i. 10)
6.46 nM: EC90 (DENV-2 RL strain [1]; Dengue virus, DENV2, C6/36, C3/36 cells, DENV-2RL, mean, read-out: EC90 Mean)
90%: % Survival (DENV-2 RL strain [2]; 802R_0.3, BID, d p.i. 17) | % Survival (DENV-2 RL strain [2]; 802R_0.3, BID, d p.i. 18) | % Survival (DENV-2 RL strain [2]; 802R_0.3, BID, d p.i. 19) | % Survival (DENV-2 RL strain [2]; 802R_0.3, BID, d p.i. 20) | % Survival (DENV-2 RL strain [2]; 802R_0.3, BID, d p.i. 21) | % Survival (DENV-2 RL strain [2]; 802R_0.3, BID, d p.i. 22) | % Survival (DENV-2 RL strain [2]; 802R_0.3, BID, d p.i. 23) | % Survival (DENV-2 RL strain [2]; 802R_0.3, BID, d p.i. 24) | % Survival (DENV-2 RL strain [2]; 802R_0.3, BID, d p.i. 25 = end of study)
1.34 nM and 1.19 nM and 1.38 nM: EC50 (DENV-2 RL strain [1]; C3/36 cells, DENV-2RL, EXP 1 and EXP 2, read-out: EC50, individual values)
5.52 nM: EC90 (DENV-2 RL strain [1]; Dengue virus, DENV2, C6/36, C3/36 cells, DENV-2RL, EXP 1 and EXP 2, read-out: EC90, individual values)
6.5 ± 1 nM: EC90 (DENV-2 RL strain [1]; Dengue virus, DENV2, C6/36, C6/36, read-out: EC90)
≥ 80%: survival (DENV-2 RL strain [2]; 0.6–20 mg per kg per day, b.i.d., vehicle 0%)
7.33 nM and 7.51 nM and 5.46 nM: EC90 (DENV-2 RL strain [1]; C3/36 cells, DENV-2RL, EXP 1 and EXP 2, read-out: EC90, individual values)
